In the NIST ThermoML archive (doi:10.1021/acs.jced.6b00517):
Numbers after ± are expanded uncertainties.

Tests used:
[1] = Liquid; for mass density: 298.15 K, 101.3 kPa, Vibrating tube method; for vapor or sublimation pressure: Ebulliometric method (Recirculating still)
[2] = Boiling temperature at pressure P; conditions: 101.3 kPa; Liquid; Ebulliometric method (Recirculating still)
[3] = refractive index (Na D-line) (dimensionless); conditions: 298.15 K; 101.3 kPa; Liquid; Standard Abbe refractometry

CCCCOC(=O)OCCCC [dibutyl carbonate]
Conditions | Boiling temperature at pressure P [°C] | mass density [kg/m3] | refractive index
[1] | – | 925.17 ± 5 | –
[2] | 204.50 ± 0.44 | – | –
[3] | – | – | 1.4115 ± 0.01

[1]
Conditions | vapor or sublimation pressure [kPa]
383.16 K | 5 ± 2
403.77 K | 10 ± 2
410.07 K | 15 ± 2
420.73 K | 20 ± 2
427.86 K | 25 ± 2
434.15 K | 30 ± 2
439.03 K | 35 ± 2
443.67 K | 40 ± 2
443.78 K | 40 ± 2
449.33 K | 45 ± 2
453.17 K | 50 ± 2
456.63 K | 55 ± 2
459.47 K | 60 ± 2
461.31 K | 65 ± 2
463.87 K | 70 ± 2.1
464.01 K | 70 ± 2.1
465.41 K | 75 ± 2
468.56 K | 80 ± 2
470.27 K | 85 ± 2
472.83 K | 90 ± 2
475.91 K | 95 ± 2
478.02 K | 100 ± 2.1
478.18 K | 100 ± 2

CCCCO [butan-1-ol]
Conditions | mass density [kg/m3] | refractive index
[1] | 805.94 ± 5 | –
[3] | – | 1.3971 ± 0.01

[1]
Conditions | vapor or sublimation pressure [kPa]
367.03 K | 40 ± 2
381.07 K | 70 ± 2

CO [methanol]
Conditions | Boiling temperature at pressure P [°C] | mass density [kg/m3] | refractive index
[1] | – | 786.61 ± 5 | –
[2] | 64.68 ± 0.44 | – | –
[3] | – | – | 1.3266 ± 0.01

[1]
Conditions | vapor or sublimation pressure [kPa]
315.78 K | 40 ± 2
328.56 K | 70 ± 2
337.33 K | 100 ± 2
